Measured values as given in PMC13401508 (Pharmacological research, 2026).

Columns and labels:
[1] = system: HS5, RWPE-1, C4–2B, PC3-ML, ARCaP-M and RM1-BM cells; experiment: Colony formation (clonal) assay; assay type: cell-based, human and murine; conditions: 50 μM, six repeated doses over a two-week period, tumor and non-tumor cells
Experimental: 200 cells/well were seeded in triplicate in 6-well plates. […] The colonies were fixed with ice-cold Methanol and stained with 0.5% crystal violet and counted.
Fig. 1. Primary characterization of IVMT-Rx-4. A) Chemical structure (upper panel) and synthesis scheme (lower panel). […] All proteins were extracted, and Western blotting was performed immediately after heating. Quantifications were obtained in the absence (control) or presence of IVMT-Rx-4 and values are presented as percentage of RT (room temperature) normalized for the experimental groups (control, IVMT-Rx-4). SOD (Superoxide dismutase) was used as an endogenous control. […] Colonies were stained with crystal violet and counted (n = 3 ± SD; ns: non-significant). […] Invaded cells were stained with crystal violet. Top panel: representative photograph of invaded cells under different experimental settings. Bottom panel: graphical representation of number of invaded cells/field for different cell lines (n = 3 ± SD; * p < 0.05).

[2] = Stability in liver microsomes with NADPH and UDPGA; assay type: in vitro ADME; conditions: liver microsomes; all species (human, monkey, dog, rat, mouse), NADPH and UDPGA added; read-out: t½ in liver microsomes
Experimental: Test samples were incubated at 37 °C, and Verapamil was used as a positive control. Samples were drawn from the incubation solution at different timepoints, centrifuged, then diluted with ultra-pure H20 and analyzed via LC-MS/MS. The natural logarithm of the remaining parent drug at each timepoint was plotted against incubation time, and the following equation was used to calculate the in vitro half-life:
in vitro t1/2 = -(0.693/k), where k is the rate constant.

[3] = system: Salmonella typhimurium TA98 & TA100; experiment: Mini-Ames assay; assay type: cell-based; conditions: with or without S9 mix
Experimental: The mini-AMES assay was performed in Pharmaron, Inc. following the standard protocol as developed by the in-house scientist. […] The assay was conducted in the presence or absence of the S9 mix along with concurrent negative/solvent control and positive controls.

[4] = Pharmacokinetic studies, single dose IV, PO, SC, IP; assay type: in vivo, CD1 mice
Experimental: CD1 mice were randomly grouped to 4 groups (n=3 per group). […] Further, 20-µL blood samples were collected from a capillary in the retro-orbital plexus at pre-determined time intervals, placed into heparinized tubes, and immediately centrifuged (2500 × g, 15 min, 4 °C). The plasma was separated and kept frozen at −80 °C until analysis.
Then the samples were vortexed for 30 s. After centrifugation at 4000 rpm for 15 min at 4 °C, the supernatant was diluted 3 times with water.5 µL of the diluted supernatant was injected into the Shimadzu LC/MS/MS system with a Phenomenex Kinetex C18 column (2.1 mm × 50 mm, 5 µm, 100 Å ). The samples were chromatographed using a gradient mobile phase consisting of 95% water (0.1% formic acid)– 95% acetonitrile (0.1% formic acid), delivered at a flow rate of 0.6 mL/min.

NF-κB p65 = NF-κB p65 transcription factor activation assay; assay type: cell-based, human; conditions: PC3-ML, ARCaP-M and C4–2B cells, 24 hrs, vs vehicle
Experimental: NF-κB p65 transcription factor assay kits were obtained from Cayman Chemical, USA and performed following the manufacturer’s instructions.
(§1) Fig. 2. […] NF-κB activity was measured by absorbance at 450 nm (n = 3 ± SD; * p < 0.05). […] C) PDGF-AA protein levels were determined in the three PC cell line-derived conditioned media by ELISA. In both panels: n = 3 ± SD; * p < 0.05.

PDGF-AA = PDGF-AA protein in conditioned media by ELISA; assay type: cell-based, human; conditions: conditioned media of PC3-ML, ARCaP-M and C4–2B cells
Experimental: Human and mouse specific CXCL5, PDGF-AA ELISA kits were obtained from R&D Systems, USA. All ELISAs were performed using the manufacturer’s protocol.
as §1

PC3-ML-Luc cells = experiment: Combination and survival study, PC3-ML-Luc model; assay type: in vivo; conditions: PC3-ML-Luc in athymic nude mice, day 14, IVMT-Rx-4 30 mg/kg and/or Docetaxel 5 mg/kg 3X a week for two weeks
Experimental: Both syngeneic (C57BL/6) and athymic nude mice were used for survival studies. Tumor cells (RM1-BM-Luc or PC3-ML-Luc) were injected intracardially in a cohort of 40 animals. […] In the combination groups, both regimens were administered 3X a week for two-weeks at the same dose as a single therapy. Animals were imaged periodically and maintained until euthanization was required.
Fig. 5. […] A and B) RM1-BM-Luc (A) or PC3-ML-Luc (B) cells were implanted I.C. in C57BL/6 and athymic nude mice, respectively. […] BLI images were used to detect bone metastases (the percentage incidence of bone metastases in animals was calculated at a single time point, day 14). Values are presented at the bottom panel of the respective group (red, number of animals positive for metastasis and black, total number of experimental animals). C and D) Animals were kept until mandated euthanasia based on IACUC guidelines, considered as disease associated death. The Kaplan–Meier survival curves were generated using GraphPad in both models as described in (A) and (B), respectively. E and F) Log-rank test was performed and values between different experimental groups are presented.

Cc1cc(NC(=O)CCc2nnc(-c3ccccc3)o2)c(C)cc1N [IVMT-Rx-4]
cell proliferation (colony formation) [1]: did not inhibit cell proliferation
half-life [2]: > 210 min
cytotoxicity to tester strains in Mini-Ames assay ([3]; 1.5 to 1000 μg/well): No obvious cytotoxicity
Mini-Ames Assay (2-strain option: TA98 & TA100) [3]: Weakly positive for 2 strains
Tmax ([4]; CD1, mouse, plasma, 10 mg/kg, all non-intravenous routes): ≤ 30 min
half-life ([4]; CD1, mouse, plasma, ip, 10 mg/kg, IP 10 mg/kg, read-out: Plasma half-life (converted)): 61.2 min
half-life ([4]; CD1, mouse, plasma, iv, 3 mg/kg, IV 3 mg/kg, mean of 3 mice, read-out: T1/2 (plasma half-life) (converted)): 27 min
half-life ([4]; CD1, mouse, plasma, po, 10 mg/kg, PO 10 mg/kg, read-out: Plasma half-life (converted)): 82.2 min
half-life ([4]; CD1, mouse, plasma, sc, 10 mg/kg, SC 10 mg/kg, read-out: Plasma half-life (converted)): 41.4 min
Maximum plasma concentration (Cmax) ([4]; IP 10 mg/kg): 1012 ng/mL
time to reach Cmax (Tmax) ([4]; IP 10 mg/kg): 15 min
time after which plasma levels became undetectable ([4]; IV 3 mg/kg): 4 h
Maximum plasma concentration (Cmax) ([4]; PO 10 mg/kg): 2047 ng/mL
time to reach Cmax (Tmax) ([4]; PO 10 mg/kg): 15 min
time after which plasma levels became undetectable ([4]; PO, SC and IP routes, 10 mg/kg): 8 h
Maximum plasma concentration (Cmax) ([4]; SC 10 mg/kg): 1017 ng/mL
time to reach Cmax (Tmax) ([4]; SC 10 mg/kg): 30 min
NF-κB activity (NF-κB p65): decreased NF-κB activity
PDGF-AA protein level (PDGF-AA): decreased PDGF-AA
bone metastases, Incident/Total number tested (PC3-ML-Luc cells): 1/8
